Laboratory results from PubChem BioAssay AID1963972 (Molecular Pharmacology Branch, DTP, NCI, 2024).

Tested on: 945468-187-T-J2-PDC spheroids viability
Assay: Anticancer human tumor 945468-187-T-J2-PDC patient-derived rectal carcinoma cell line growth inhibition [PI3K]
Details: spheroids with HUVEC and MSC; for IC50: curve of first compound; for viability, T/C: stronger effect = lower value
Procedure, shortened: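 Complex 3D spheroids (cancer cells + endothelial HUVEC + mesenchymal stem cells); drug pairs of targeted agent x inavolisib/alpelisib/duvelisib/copanlisib; half-log series from ~Cmax, max 10 microM if Cmax unknown; endpoint viability.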

[1] = second compound 0.00316 µM, first compound 0.0316 µM
[2] = second compound 0.00316 µM, first compound 0.1 µM
[3] = second compound 0.01 µM, first compound 0.0316 µM
[4] = second compound 0.01 µM, first compound 0.1 µM
[5] = second compound 0.0316 µM, first compound 0.0316 µM
[6] = second compound 0.0316 µM, first compound 0.1 µM
[7] = second compound 0.1 µM, first compound 0.0316 µM
[8] = second compound 0.1 µM, first compound 0.1 µM
[9] = second compound 0.316 µM, first compound 0.0316 µM
[10] = second compound 0.316 µM, first compound 0.1 µM
[11] = second compound 1 µM, first compound 0.0316 µM
[12] = second compound 1 µM, first compound 0.1 µM
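Further: spheroids exposed to compounds for seven days before reading.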

CC(C)NCC(C(=O)N1CCN(c2ncnc3c2C(C)CC3O)CC1)c1ccc(Cl)cc1 (centres undefined) + CC(Nc1ccc2c(c1)OCCn1cc(N3C(=O)OCC3C(F)F)nc1-2)C(N)=O
IC50 (second compound 0.00316 µM): > 10 µM | IC50 (second compound 0.01 µM): > 10 µM | IC50 (second compound 0.0316 µM): > 10 µM | IC50 (second compound 0.1 µM): > 10 µM | IC50 (second compound 0.316 µM): > 10 µM | IC50 (second compound 1 µM): > 10 µM | viability, T/C [1]: 84.4% | viability, T/C [2]: 114% | viability, T/C (second compound 0.00316 µM, first compound 0.316 µM): 79.4% | viability, T/C (second compound 0.00316 µM, first compound 1 µM): 86.4% | viability, T/C (second compound 0.00316 µM, first compound 3.16 µM): 104% | viability, T/C (second compound 0.00316 µM, first compound 10 µM): 99.3% | viability, T/C [3]: 110% | viability, T/C [4]: 92.3% | viability, T/C (second compound 0.01 µM, first compound 0.316 µM): 96.2% | viability, T/C (second compound 0.01 µM, first compound 1 µM): 71.6% | viability, T/C (second compound 0.01 µM, first compound 3.16 µM): 97.7% | viability, T/C (second compound 0.01 µM, first compound 10 µM): 98.9% | viability, T/C [5]: 93.6% | viability, T/C [6]: 89.5% | viability, T/C (second compound 0.0316 µM, first compound 0.316 µM): 95.2% | viability, T/C (second compound 0.0316 µM, first compound 1 µM): 90.7% | viability, T/C (second compound 0.0316 µM, first compound 3.16 µM): 96.9% | viability, T/C (second compound 0.0316 µM, first compound 10 µM): 92.9% | viability, T/C [7]: 121% | viability, T/C [8]: 77.1% | viability, T/C (second compound 0.1 µM, first compound 0.316 µM): 82.8% | viability, T/C (second compound 0.1 µM, first compound 1 µM): 81.3% | viability, T/C (second compound 0.1 µM, first compound 3.16 µM): 89.9% | viability, T/C (second compound 0.1 µM, first compound 10 µM): 78.4% | viability, T/C [9]: 72.5% | viability, T/C [10]: 77.2% | viability, T/C (second compound 0.316 µM, first compound 0.316 µM): 76.2% | viability, T/C (second compound 0.316 µM, first compound 1 µM): 87% | viability, T/C (second compound 0.316 µM, first compound 3.16 µM): 84.2% | viability, T/C (second compound 0.316 µM, first compound 10 µM): 81.9% | viability, T/C [11]: 76.5% | viability, T/C [12]: 65.3% | viability, T/C (second compound 1 µM, first compound 0.316 µM): 75.6% | viability, T/C (second compound 1 µM, first compound 1 µM): 71.2% | viability, T/C (second compound 1 µM, first compound 3.16 µM): 68.5% | viability, T/C (second compound 1 µM, first compound 10 µM): 59.7%

Cn1ncnc1[C@H]1c2n[nH]c(=O)c3cc(F)cc(c23)N[C@@H]1c1ccc(F)cc1 + CC(Nc1ccc2c(c1)OCCn1cc(N3C(=O)OCC3C(F)F)nc1-2)C(N)=O
IC50 (second compound 0.00316 µM): > 0.1 µM | IC50 (second compound 0.01 µM): > 0.1 µM | IC50 (second compound 0.0316 µM): > 0.1 µM | IC50 (second compound 0.1 µM): > 0.1 µM | IC50 (second compound 0.316 µM): > 0.1 µM | IC50 (second compound 1 µM): > 0.1 µM | viability, T/C (second compound 0.00316 µM, first compound 0.000316 µM): 103% | viability, T/C (second compound 0.00316 µM, first compound 0.001 µM): 114% | viability, T/C (second compound 0.00316 µM, first compound 0.00316 µM): 105% | viability, T/C (second compound 0.00316 µM, first compound 0.01 µM): 86.6% | viability, T/C [1]: 92.6% | viability, T/C [2]: 99.7% | viability, T/C (second compound 0.01 µM, first compound 0.000316 µM): 131% | viability, T/C (second compound 0.01 µM, first compound 0.001 µM): 99.1% | viability, T/C (second compound 0.01 µM, first compound 0.00316 µM): 107% | viability, T/C (second compound 0.01 µM, first compound 0.01 µM): 84.5% | viability, T/C [3]: 110% | viability, T/C [4]: 123% | viability, T/C (second compound 0.0316 µM, first compound 0.000316 µM): 129% | viability, T/C (second compound 0.0316 µM, first compound 0.001 µM): 139% | viability, T/C (second compound 0.0316 µM, first compound 0.00316 µM): 100% | viability, T/C (second compound 0.0316 µM, first compound 0.01 µM): 98.8% | viability, T/C [5]: 96.3% | viability, T/C [6]: 123% | viability, T/C (second compound 0.1 µM, first compound 0.000316 µM): 87.6% | viability, T/C (second compound 0.1 µM, first compound 0.001 µM): 112% | viability, T/C (second compound 0.1 µM, first compound 0.00316 µM): 96.8% | viability, T/C (second compound 0.1 µM, first compound 0.01 µM): 89.1% | viability, T/C [7]: 118% | viability, T/C [8]: 102% | viability, T/C (second compound 0.316 µM, first compound 0.000316 µM): 82.3% | viability, T/C (second compound 0.316 µM, first compound 0.001 µM): 103% | viability, T/C (second compound 0.316 µM, first compound 0.00316 µM): 100% | viability, T/C (second compound 0.316 µM, first compound 0.01 µM): 88% | viability, T/C [9]: 99.7% | viability, T/C [10]: 99.6% | viability, T/C (second compound 1 µM, first compound 0.000316 µM): 77.1% | viability, T/C (second compound 1 µM, first compound 0.001 µM): 84.3% | viability, T/C (second compound 1 µM, first compound 0.00316 µM): 75.9% | viability, T/C (second compound 1 µM, first compound 0.01 µM): 84.9% | viability, T/C [11]: 79.2% | viability, T/C [12]: 77.2%
